In general, melting point refers to the temperature of the solid-liquid transition. As for `NC(=O)Cc1cccc2c(-c3ccccc3)onc12`, the melting point fell in the range of 191 to 192 °C.

Consider `COC(=O)C1OC(c2cc(-c3ncc(C(F)(F)F)cc3Cl)ccc2Cl)OC1C(=O)OC` (stereo not given), for which the melting point fell in the range of 48 to 53 °C.

Compound `Cc1nnc2ccc(-c3ccc([N+](=O)[O-])c(C(F)(F)F)c3)nn12` had a melting point of 293 to 295 °C.

`CSC1Oc2ccc(Cl)cc2C1=O` (stereo not given) yielded a melting point of 76 to 78 °C.

As to `CCCc1c(C(=O)C(C)C)c2ccc(C(N)=O)cc2n1Cc1ccccc1Cl`, the melting point lay within 85 to 86 °C.

Take `Cc1nc(-n2ccc(OCc3ccc(C(F)(F)F)o3)cc2=O)sc1C(=O)NCc1ccccc1`: the melting point lay within 214 to 216 °C.

Take `CCCCOCCOC(=O)C1=C(C)NN=C(CC)C1c1cccc([N+](=O)[O-])c1` (stereo not given): the melting point is 122 °C.

As to `O=C(O)c1ccc(-c2ccc3cc(O)c(C45CC6CC(CC(C6)C4)C5)cc3c2)cc1O`, the melting point lay within 261 to 264 °C.

Compound `CC(C)Oc1ncc(OC(=O)C2(C)CC2)cc1Cl` gave a melting point of 116 to 117 °C.

`O=C1CN2C(=O)N(c3cc(Cl)nc(Cl)c3)C(=O)[C@@]2(Cc2ccc(OC(F)(F)F)cc2)C1` gave a melting point of 166 °C.

Take `COc1cc(OC)c([N+](=O)[O-])c(OC)c1NC(=O)OCCCl`: the melting point amounted to 133 °C.

Compound `COC(=O)c1ccc(NNC(=O)C(C)C)cc1S(N)(=O)=O` came in with a melting point of 198 to 200 °C.

As to `CC(C)c1cccc(C(C)C)c1NC(=O)CS(=O)(=O)CCCl`, the melting point was in the range of 166 to 168 °C.

Compound `CN1OCC(=O)N(C(c2ccccc2)c2ccccc2)C1=S` came in with a melting point of 152 to 154 °C.

On to `Cc1ncccc1C(C#N)N1CCN(C(=O)Cc2ccc(OCc3ccc4ccccc4n3)cc2)CC1` (stereo not given), for which the melting point is 64 to 68 °C.

Turning to `CC1(C)Nc2ccc(C#N)cc2C(NC(=NC#N)Nc2ccccc2)C1O` (stereo not given), the melting point was 218 to 219 °C.

Compound `CCC(C)(O)CNc1c(N)c(Cl)nc2ccccc12` (stereo not given) registered a melting point of 99 to 101 °C.

As to `CCCc1nc2c(N)nc3cc(Oc4ccccc4N)ccc3c2n1CC(C)C`, the melting point was in the range of 197 to 199 °C.

`CC(O)(C#CI)c1ccc(OC(F)(F)F)cc1` (stereo not given): the melting point is 75 to 76 °C.

The compound `CNC(=O)N1CCc2[nH]cnc2C1` returned a melting point of 213 °C.

Regarding `O=C(O)c1ncc(OCc2ccccc2)c(OCc2ccccc2)c1Br`, the melting point lay in the range of 155 to 157 °C.

In turn, `O=C(O)COc1ccc2c(-c3ccccc3F)noc2c1Cl` had a melting point of 188 to 189 °C.

`Cc1cc(COc2c(Cl)cc(CCl)cc2Cl)oc(=O)c1` displayed a melting point of 136 °C.

`COCn1ncc2cc(C(=O)OC)ccc21` had a melting point of 73 to 74 °C.

`CCOC(=O)c1c(C(F)(F)F)nc(C(F)F)c(C(=O)OC)c1C1CC1` registered a melting point of 49 to 52 °C.

In turn, `N#Cc1cc(C(Cl)(Cl)Cl)ccc1Cl` registered a melting point of 66 to 68 °C.

Turning to `COc1cccnc1CO`, the melting point fell in the range of 72.5 to 73.5 °C.

As for `Cc1ccc(S(=O)(=O)N2CCC(Sc3ccc(Cl)c(Cl)c3)CC2)cc1`, the melting point lay within 79 to 80 °C.

As for `COCC(C)Nc1cc(-c2ccnc(Nc3cccc(Cl)c3)n2)ccn1` (stereo not given), the melting point fell in the range of 143 to 144 °C.

The compound `CC(=O)N1CCN(CC2CN=C(c3cc4cc(OCCCS(C)(=O)=O)cc(N(C)S(=O)(=O)c5ccccn5)c4[nH]3)S2)CC1` (stereo not given) came in with a melting point of 165 to 167 °C.

Compound `CCOC(=O)c1c(C)cc(-c2ccc(OC)c(OC)c2)cc1C` yielded a melting point of 91 to 92 °C.

In turn, `O=C1CCC(=O)N1Cc1nc2sc3c(c2c(-c2ccc(O)cc2)c1Cl)CCNC3` yielded a melting point of 286 to 287 °C.

On to `COC(=O)c1cc(-c2ncco2)ccc1-c1ccccc1S(=O)(=O)Nc1onc(C)c1C`, for which the melting point was 106 to 112 °C.

Compound `COC(=O)C(=NO)c1cccc(Oc2ccccc2)c1` yielded a melting point of 122 to 123 °C.

For the compound `CCCCCCCCCCCCCCCC(=O)OCC1(O)COC(O)(COC(=O)CCCCCCCCCCCCCCC)CO1` (stereo not given), the melting point worked out at 95.2 °C.

Source of the values: a melting point compilation (Tetko et al.; mined from patent text by program, amines drawn as free bases though some values may be those of a salt).
